Assay results published in US20170000805A1, “FOOD SUPPLEMENTATION COMPOSITION CONTAINING ONE OR MORE VITAMIN D3 COMPOUNDS AND ONE OR MORE MAGNESIUM SALTS” (DSM IP ASSETS B.V., priority 2006, published 2017).

Key:
[1] = MgCl2 and Hy-D dosed into the rumen of fistulated cattle: urine pH, urine and blood plasma minerals; assay type: in vivo
Description: Four mature rumen fistulated cattle (approximately 600 kg […] in individual pens and offered 12 kg/day of good quality lucerne chaff throughout the experiment. After a 2 week adaptation to this diet the following treatments were applied daily over 2 weeks to each animal in a Latin Square Design: 1. no supplement (control) 2. […] 3. […]® 1.25% (5 mg 25-hydroxy vitamin D3) MgCl2 plus […]® 1.25 % Each treatment was dosed into the rumen through a cannula each morning during the 2 week experimental period. […] Urine pH was measured at time of collection; blood plasma was decanted after centrifugation and analyzed for calcium, magnesium, potassium, sodium and phosphorus by inductively coupled plasma atomic emission spectrophotometry. The results were analysed as a latin square design making comparisons between treatments after removal of any animal or period effects. The lucerne […] assayed for macro cations together with chloride and sulphur concentrations.

[2] = cited from earlier work
[3] = blood samples on days 7, 13 and 14
[4] = urine samples on days 12, 13 and 14

[Cl-].[Cl-].[Mg+2] [Mg, magnesium chloride]
Blood Plasma composition Ca2+ [1, 3]: 87 mg/L | Blood Plasma composition K+ [1, 3]: 233 mg/L | Blood Plasma composition Mg2+ [1, 3]: 19 mg/L | Blood Plasma composition Na+ [1, 3]: 2280 mg/L | Blood Plasma composition Phosphorus [1, 3]: 74 mg/L | Urine Composition Ca2+ [1, 4]: 397b mg/L | Urine Composition K+ [1, 4]: 6652 mg/L | Urine Composition Mg2+ [1, 4]: 411 mg/L | Urine Composition Na+ [1, 4]: 444 mg/L | Urine Composition Phosphorus [1, 4]: 190 mg/L | Urine pH ([1]; urine samples on days 12, 13 and 14, measured at time of collection): 6.20b

C=C1/C(=C\C=C2/CCC[C@]3(C)[C@@H]([C@H](C)CCCC(C)C)CC[C@@H]23)C[C@@H](O)C[C@@H]1O [1-α-hydroxy vitamin D3]
activity relative to 25-hydroxy vitamin D3 [2]: approximately 10 times

C=C1/C(=C\C=C2/CCC[C@]3(C)[C@@H]([C@H](C)CCCC(C)(C)O)CC[C@@H]23)C[C@@H](O)C[C@@H]1O [1-α-, 25-dihydroxy vitamin D3]
activity relative to 25-hydroxy vitamin D3 [2]: approximately 10 times
